Test results from PubChem BioAssay (NCI).
Values joined by “and” are separate entries in the source; they are usually repeats but may differ in a detail not shown here. Equal entries are not always repeated.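 Growth conditions: 96-well plates. Treatment: test compound, 48 hours, 5 concentrations. Analysis: linear interpolation between bracketing concentrations; unreached endpoints set to highest concentration. GI50 is the concentration that inhibits growth by half. TGI: concentration producing complete growth inhibition.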

Assays:
Assay in all cases: inhibition of tumour cell growth, NCI panel, 48 h
HOP-92 NSCLC = system: HOP-92 NSCLC
UACC-62 melanoma = system: UACC-62 melanoma
UO-31 renal = system: UO-31 renal
OVCAR-4 ovarian = system: OVCAR-4 ovarian
HOP-62 NSCLC = system: HOP-62 NSCLC
CAKI-1 renal = system: CAKI-1 renal
NCI-H460 lung = system: NCI-H460 lung
KM12 colon = system: KM12 colon
SW-620 colon = system: SW-620 colon

Row | SMILES | GI50 (HOP-92 NSCLC) [µM] | TGI (HOP-92 NSCLC) [µM] | GI50 (UACC-62 melanoma) | TGI (UACC-62 melanoma) [µM] | GI50 (UO-31 renal) [µM] | TGI (UO-31 renal) [µM] | GI50 (OVCAR-4 ovarian) [µM] | TGI (OVCAR-4 ovarian) [µM] | GI50 (HOP-62 NSCLC) | TGI (HOP-62 NSCLC) [µM] | GI50 (CAKI-1 renal) | TGI (CAKI-1 renal) [µM] | GI50 (NCI-H460 lung) | TGI (NCI-H460 lung) [µM] | GI50 (KM12 colon) | TGI (KM12 colon) [µM] | GI50 (SW-620 colon) | TGI (SW-620 colon) [µM]
1 | O=C(Nc1cccc(Cl)c1)Nc1cccc(Cl)c1 | 2.11 | > 100 | 3.69 µM | > 100 | > 26 | > 100 | 1.99 | > 100 | 21.9 µM | > 88.8 |  |  |  |  |  |  |  | 
2 | COc1ccc(CN2c3ccccc3Sc3ccccc32)cc1F | 1.25 | > 38.9 | 0.516 µM | > 100 | 1.12 | > 100 | 0.964 | > 100 | 4.34 µM | > 100 | 0.399 µM | > 100 | 0.379 µM | > 100 | 0.471 µM | > 100 | 0.398 µM | > 100
3 | COc1ccc(Nc2c3ccccc3nc3c2c2ccccc2n3C)cc1 |  |  | 11.4 µM | 41.5 | > 100 | > 100 |  |  | > 100 µM | > 100 | 30.7 µM | > 100 | 5.2 µM | > 100 | 6.61 µM | 53.3 | 41.7 µM | > 100
4 | C[N+](C)(C)CCOP(=O)(O)OP(=O)([O-])OCC1CCC(n2ccc(N)nc2=O)O1 (stereo not drawn) |  | > 100 |  | > 100 |  | > 100 |  | > 100 |  | > 100 |  | > 100 |  | > 100 |  | > 100 |  | > 100
5 | CC(C)=CC/C=C(/C)[C@H]1CC[C@]2(C)[C@@H]1CC[C@@H]1[C@@]3(C)CCC(=O)NC(C)(C)[C@@H]3CC[C@]12C | 13.8 | 28.2 | 16.9 µM | 43.5 | 15.6 | 29.2 | 21.9 | 75 | 20.8 µM | 44.7 | 19.6 µM | 40.3 | 33.9 µM | > 100 | 18.7 µM | 37.5 | 20.2 µM | 43.9
6 | COC(=O)/C(C#N)=C\N1CCN(C(=O)c2ccco2)C1=S | 14 | 43.1 | 10.7 µM | 27.2 | 5.19 | 21.3 | 23.3 | 58.8 | 22.3 µM | 46.8 | 3.43 µM | 14.1 | 2.47 µM | 4.95 | 3.3 µM | 12.6 | 5.2 µM | 19.7
7 | CN(C)CC(C(=O)c1ccccc1)c1ccccc1 (stereo not drawn) | 2.28 | 9.54 | 2.05 µM | 7 | 1.49 | 3.02 |  |  | 11.3 µM | 23.5 | 0.966 µM | 2.67 | 3.93 µM | 16 | 1.74 µM | 3.83 | 0.396 µM | 1.57
8 | COC(=O)[C@]12CC[C@@H](C)[C@H](C)[C@@H]1C1=CC[C@@H]3[C@@]4(C)C[C@@H](OC(=O)c5ccco5)[C@H](O)[C@@](C)(CO)[C@@H]4[C@H](O)C[C@@]3(C)[C@]1(C)CC2 | 2.59 | 6.19 |  |  | 2.02 | 7.42 | 3.41 | 13.5 | 2.03 µM | 4 | 2.99 µM | 10.9 | 1.97 µM | 3.87 | 2.62 µM | 6.77 | 1.79 µM | 3.54
9 | C=CCN1C(=O)/C(=c2\sc3n(c2=O)C2C(NN=3)N(CC)C(=O)N2CC)c2ccccc21 (stereo not drawn) | 0.842 | 9.2 | 0.612 µM | > 62.1 |  |  | 1.03 | > 100 | 1.02 µM | > 53.5 | 0.474 µM | > 100 | 0.413 µM | > 100 | 0.439 µM | > 100 | 0.423 µM | > 100
10 | N/C(=N\O)c1ncc(-c2ccc(C(F)(F)F)cc2)c(NC2CCCCCC2)n1 |  |  | 9.12 µM and 2.65 µM | 10.5 |  | 10.9 | 2.72 | 15 | 7.5 µM and 6.53 µM | 23.2 | 5.71 µM and 1.69 µM | 8.1 | 6.6 µM and 2.6 µM | 9.34 | 6.51 µM and 3.13 µM | 13.1 | 4.92 µM and 3.88 µM | 15.4
11 | COc1ccc(/C=C/C(=O)c2sc(N)nc2C)cc1 |  | > 100 |  | > 100 |  | > 100 |  |  |  | > 100 |  | > 100 |  | > 100 |  | > 100 |  | > 100
12 | Cc1ccc(/C=C(\C#N)n2nnc3cc(Cl)c(Cl)cc32)cc1 | 1.61 | 9.65 |  |  | 1.59 | 3.35 | 2.69 | 81.5 | 2.6 µM | > 100 | 1.09 µM | 13.8 | 2.43 µM | 6.52 | 3.03 µM | > 100 |  | 
13 | Cc1ccc(-n2c3c(c4c(CN5CCCCC5)c(O)ccc42)CCc2ccccc2C3=O)cc1 | 20 | 88.2 | 97.4 µM | > 100 | > 100 | > 100 |  |  | 27.5 µM | 80.7 | > 100 µM | > 100 | > 100 µM | > 100 | > 100 µM | > 100 | > 100 µM | > 100
14 | CC(C)c1cc(C(C)C)c(S(=O)(=O)NN)c(C(C)C)c1 |  | > 100 |  | > 100 |  |  |  | > 100 |  | > 100 |  | > 100 |  | > 100 |  | > 100 |  | > 100
15 | C=CCC(C(=O)OC)C1(C(=O)OC)c2[nH]c3ccccc3c2CCN1Cc1ccccc1 (stereo not drawn) |  | 74.6 |  | > 100 |  | > 100 |  | > 100 |  | > 100 |  | > 100 |  |  |  | > 100 |  | > 100
16 | CC1C2Cc3ccc(O)cc3C1(C)CCN2C (stereo not drawn) |  |  |  | > 100 |  | > 100 |  | > 100 |  | > 100 |  | > 100 |  | > 100 |  | > 100 |  | > 100
17 | Nc1nc(N)c2cc(CNc3ccc(Cl)c(Cl)c3)ccc2n1 |  |  | 0.468 µM | 1.86 | 0.865 | 2.17 | 1.16 | 2.37 | 0.81 µM | 2.05 | 1.22 µM | 2.54 | 0.0609 µM | 1.32 | 0.866 µM | 2.13 | 0.133 µM | 1.5
